Laboratory results from ChEMBL document CHEMBL3352151, “In vitro and in vivo antibacterial evaluation and mechanistic study of ornithine based small cationic lipopeptides against antibiotic resistant clinical isolates” (Eur J Med Chem, 2014).
≈ marks a conversion by molar mass, not a printed value. Calls of active or inactive are those of the source. No cut-off for these calls is given here. Square brackets hold non-standard residues; d marks the D form. Peptide text beside a SMILES is read from it. * marks the point of attachment. Stearoyl = CCCCCCCCCCCCCCCCCC(=O)*; Orn = NCCC[CH](N)C(=O)O

Key:
Haemophilus influenzae [1] = assay: Antibacterial activity against clinical isolates of ciprofloxacin-resistant Haemophilus influenzae PGI/DML01744 after overnight incubation by microdilution broth assay; format: functional
Pseudomonas aeruginosa [2] = assay: Antibacterial activity against clinical isolates of streptomycin-resistant Pseudomonas aeruginosa PGI/DML01991 after overnight incubation by microdilution broth assay; format: functional
[3] = Membrane permeabilization activity assessed as release of calcein from liposomes at 1:10 lipopeptide:lipid molar ratio after 5 mins by fluorescence assay
Enterococcus faecium [4] = assay: Antibacterial activity against clinical isolates of penicillin-resistant Enterococcus faecium GMCH/R-Pen003 after overnight incubation by microdilution broth assay; format: functional
Klebsiella pneumoniae [5] = assay: Antibacterial activity against clinical isolates of Klebsiella pneumoniae GMCH/B0127 after overnight incubation by microdilution broth assay; format: functional
[6] = Membrane permeabilization activity assessed as release of calcein from liposomes after 5 mins by fluorescence assay
Acinetobacter baumannii [7] = assay: Antibacterial activity against clinical isolates of imipenem-resistant Acinetobacter baumannii GMCH/R-Imi003 after overnight incubation by microdilution broth assay; format: functional
[8] = Cytotoxicity against human HaCaT cells assessed as cell viability at 100 ug/ml after 18 hrs by MTT assay; format: cell-based; conditions: read-out: Activity
Enterococcus faecalis [9] = assay: Antibacterial activity against clinical isolates of gentamicin-resistant Enterococcus faecalis GMCH/R-Gen011 after overnight incubation by microdilution broth assay; format: functional
Escherichia coli [10] = assay: Antibacterial activity against clinical isolates of Escherichia coli PGI/DML02250 after overnight incubation by microdilution broth assay; format: functional
[11] = Membrane permeabilization activity assessed as release of calcein from liposomes at 1:50 lipopeptide:lipid molar ratio after 5 mins by fluorescence assay
Haemophilus influenzae [12] = assay: Antibacterial activity against clinical isolates of Haemophilus influenzae PGI/DML01751 after overnight incubation by microdilution broth assay; format: functional
Staphylococcus aureus [13] = assay: Antibacterial activity against clinical isolates of methicillin-resistant Staphylococcus aureus PGI/DML03149 after overnight incubation by microdilution broth assay; format: functional
Escherichia coli [14] = assay: Binding affinity to Escherichia coli PGI/DML02292 DNA at 12 ug/ml after 1 hr by agarose gel electrophoresis
[15] = test system: Staphylococcus epidermidis; assay: Antibacterial activity against clinical isolates of ampicillin-resistant Staphylococcus epidermidis GMCH/R-Amp008 after overnight incubation by microdilution broth assay; format: functional
[16] = Cytotoxicity against human HaCaT cells assessed as cell viability at 500 ug/ml after 18 hrs by MTT assay; format: cell-based; conditions: read-out: Activity
Staphylococcus aureus [17] = assay: Antibacterial activity against clinical isolates of Staphylococcus aureus PGI/DML03054 after overnight incubation by microdilution broth assay; format: functional
Klebsiella pneumoniae [18] = assay: Antibacterial activity against clinical isolates of kanamycin-resistant Klebsiella pneumoniae GMCH/R-Kan006 after overnight incubation by microdilution broth assay; format: functional
Plasma = assay: Drug degradation in human plasma at 1 ug/ml after 24 hrs by RP-HPLC analysis; format: ADME, cell-free
[19] = test system: Staphylococcus epidermidis; assay: Antibacterial activity against clinical isolates of Staphylococcus epidermidis GMCH/B0057 after overnight incubation by microdilution broth assay; format: functional
Enterococcus faecium [20] = assay: Antibacterial activity against clinical isolates of Enterococcus faecium GMCH/B0102 after overnight incubation by microdilution broth assay; format: functional
Streptococcus pneumoniae [21] = assay: Antibacterial activity against clinical isolates of erythromycin-resistant Streptococcus pneumoniae PGI/DML02213 after overnight incubation by microdilution broth assay; format: functional
Streptococcus pneumoniae [22] = assay: Antibacterial activity against clinical isolates of Streptococcus pneumoniae PGI/DML02468 after overnight incubation by microdilution broth assay; format: functional
Escherichia coli [23] = assay: Antibacterial activity against clinical isolates of imipenem-resistant Escherichia coli PGI/DML02292 after overnight incubation by microdilution broth assay; format: functional
Acinetobacter baumannii [24] = assay: Antibacterial activity against clinical isolates of Acinetobacter baumannii GMCH/B0083 after overnight incubation by microdilution broth assay; format: functional
Pseudomonas aeruginosa [25] = assay: Antibacterial activity against clinical isolates of Pseudomonas aeruginosa PGI/DML02084 after overnight incubation by microdilution broth assay; format: functional
Enterococcus faecalis [26] = assay: Antibacterial activity against clinical isolates of Enterococcus faecalis GMCH/B0091 after overnight incubation by microdilution broth assay; format: functional

CCCCCCCCCCCCCCCCCC(=O)NC(CCCN)C(=O)NC(CCCN)C(=O)NC(CCCN)C(=O)NC(CCCN)C(N)=O (configuration not stated) (Stearoyl-[Orn][Orn][Orn][Orn]-NH2; configuration not given here)
MIC (Haemophilus influenzae [1]): 12.5 µg/mL (≈ 16.9 µM) | MIC (Pseudomonas aeruginosa [2]): 2 µg/mL (≈ 2.7 µM) | Activity [3]: 79% | MIC (Enterococcus faecium [4]): 12.5 µg/mL (≈ 16.9 µM) | MIC (Klebsiella pneumoniae [5]): 3.5 µg/mL (≈ 4.73 µM) | Activity [6]: Dose-dependent effect | MIC (Acinetobacter baumannii [7]): 12.5 µg/mL (≈ 16.9 µM) | viability at 18 h, 100 ug/ml [8]: 82% | MIC (Enterococcus faecalis [9]): 10 µg/mL (≈ 13.5 µM) | MIC (Escherichia coli [10]): 7.5 µg/mL (≈ 10.1 µM) | Activity [11]: 43% | MIC (Haemophilus influenzae [12]): 8 µg/mL (≈ 10.8 µM) | MIC (Staphylococcus aureus [13]): 7.5 µg/mL (≈ 10.1 µM) | Activity (Escherichia coli [14]): inactive | MIC [15]: 5 µg/mL (≈ 6.76 µM) | viability at 18 h, 500 ug/ml [16]: 67% | MIC (Staphylococcus aureus [17]): 5 µg/mL (≈ 6.76 µM) | MIC (Klebsiella pneumoniae [18]): 8 µg/mL (≈ 10.8 µM) | Stability (Plasma): Stable | MIC [19]: 5.5 µg/mL (≈ 7.43 µM) | MIC (Enterococcus faecium [20]): 7.5 µg/mL (≈ 10.1 µM) | MIC (Streptococcus pneumoniae [21]): 12.5 µg/mL (≈ 16.9 µM) | MIC (Streptococcus pneumoniae [22]): 4 µg/mL (≈ 5.4 µM) | MIC (Escherichia coli [23]): 7.5 µg/mL (≈ 10.1 µM) | MIC (Acinetobacter baumannii [24]): 10 µg/mL (≈ 13.5 µM) | MIC (Pseudomonas aeruginosa [25]): 4.5 µg/mL (≈ 6.08 µM) | MIC (Enterococcus faecalis [26]): 3.1 µg/mL (≈ 4.19 µM)
